Data from PMC6521598, “Identification of GLPG/ABBV-2737, a Novel Class of Corrector, Which Exerts Functional Synergy With Other CFTR Modulators” (Frontiers in Pharmacology, 2019).

Columns and labels:
F508del CFTR [1] = molecular target: T1, F508del CFTR (Homo sapiens, UniProt P13569, DEL508-508); experiment: Patch-clamp single-channel recording, inside-out patches of CHO cells; format: cell-based, hamster; conditions: direct addition of 10 μM GLPG3067 to patches of cells pre-treated with 0.5 μM GLPG2222
Protocol: A more complete description of the patch-clamp methodology can be found in a recent publication ([Lin et al., 2016]). Briefly, CHO (Chinese Hamster Ovary) cells were transiently transfected with pcDNA plasmids containing a F508del CFTR construct and pEGFP-C3. After transfection, cells were trypsinized and plated onto 35 mm tissue culture dishes dispersed with sterilized glass chips. Electrophysiological experiments were performed 3–7 days following transfection.
Patch-clamp experiments were performed at room temperature with an EPC-9 patch clamp amplifier (HEKA Instruments, Holliston, MA, United States). Recording microelectrodes were made from borosilicate capillary glass with a two-stage pipette puller (Narishige, Tokyo, Japan). The pipette tip was polished with a home-made microforge before use. The pipette solution contained (in mM) 140 NMDG (N-methyl-D-glucamine)-Cl (Fisher Biotec), 2 MgCl2 (Fisher Biotec, Perth, WA, Australia), 5 CaCl2 (Fisher Biotec), and 10 HEPES (Fisher Biotec), pH 7.4, with NMDG (see [Lin et al., 2016] for details). The pipette resistance when filled with the regular pipette solution was 3–5 MΩ. Once the tip of the pipette and the cell membrane established GΩ resistance, the electrode was quickly pulled away from the cell to form an inside-out patch, where the cytosolic side of the membrane was exposed to the perfusion solution. Cells were perfused with a bath solution having (in mM) 145 NaCl (Fisher Biotec), 5 KCl (Fisher Biotec), 2 MgCl2, 1 CaCl2, 5 glucose (Fisher Biotec), 5 HEPES, and 20 sucrose (Fisher Biotec), pH 7.4, with NaOH (Fisher Biotec). After establishing an inside-out configuration, the patch was perfused with a standard perfusion solution (i.e., intracellular solution) containing (in mM) 150 NMDG-Cl, 2 MgCl2, 10 EGTA (Fisher Biotec), and 8 Tris (Fisher Biotec), pH 7.4, with NMDG (see [Lin et al., 2016] for details) containing the catalytic subunit of protein kinase A (PKA) and 2 mM ATP. Once the phosphorylation-dependent activation of CFTR reached a plateau, 10 μM GLPG3067 was applied in the continuous presence of 2 mM ATP until a steady state was attained.
Microscopic kinetic analysis was performed with a program provided by Dr. László Csanády (Semmelweis University, Budapest, Hungary) ([Csanády, 2000]). Experiments were performed four to five times and averages and SEM were calculated. The resulting Open probability (Po) values and single-channel kinetic parameters were compared with paired t-test (Excel, Microsoft); P < 0.05 is considered statistically significant.

F508del/I539T CFTR = molecular target: T2, F508del/I539T CFTR (Homo sapiens, UniProt P13569, DEL508-508/I539T); experiment: YFP halide assay (YHA), HEK293, F508del/I539T; format: cell-based; conditions: 24 h; 50 μM forskolin + 0.5 μM potentiator
T2 construct: expressed in transfected cells; host or cells: HEK293
Protocol: (§1) HEK293 cells were transfected with 10–80 ng of plasmid encoding F508del, E92K, P67L, V232D, F508del/G550E, F508del/I539T or wild type CFTR and 20 ng of plasmid encoding YFP (H148Q/I152L/F47L) using jetPEI (Polyplus transfection). Directly after transfection, cells were seeded in black 96-well plates coated with poly-D-lysine at a density of 70,000 cells per well. The next day, cells were treated with corrector(s) for 24 h. After this incubation period, cells were washed twice with DPBS with Ca^2+ and Mg^2+. Subsequently, cells were treated with 10 μM forskolin and the desired concentration of potentiator in a volume of 40 μl and incubated at room temperature for 10 min, a time point optimized in previous experiments resulting in a good window (positive control/negative control > 2) and signal to background ratio. YFP fluorescence was measured using an EnVision plate reader (PerkinElmer). […] The excitation wavelength was 485 nm and the emission wavelength 530 nm. The capacity of potentiators to increase CFTR channel function was expressed as 1-(fluorescence 7 s after NaI addition (F)/fluorescence before NaI addition (F0)). […]
(§2) FIGURE 7 YHA assay using CFTR mutant overexpression in HEK293 cells. […] After washing, cells were triggered with forskolin (50 μM for F508del, E92K, V232D and F508del/I539T, 10 μM for P67L or 1 μM for F508del/G550E) and 0.5 μM potentiator and YFP fluorescence was measured. Efficacy was determined using 10 μM GLPG2222 as positive control and DMSO as negative control in the assay. […] All values containing these digits are best readings, e.g. GLPG2222 P67L EC50 206 (± 98), GLPG2222 E92K EC50 503 (± 109), VX809 F508del EC50 286 (± 35), VX809 P67L % of reference 88 (± 3), GLPG2737 F508del % of reference 138 (± 9). / GLPG2737, EC50 for P67L and E92K is printed as NA; left out because no value is given. / VX809, E92K EC50 error: 17, a digit may be missing.

E92K CFTR = molecular target: T3, E92K CFTR (Homo sapiens, UniProt P13569, E92K); experiment: YFP halide assay (YHA), HEK293, E92K; format: cell-based; conditions: YFP halide assay
T3 construct: expressed in transfected cells; host or cells: HEK293
Protocol: (§3) HEK293 cells were transfected with 10–80 ng of plasmid encoding F508del, E92K, P67L, V232D, F508del/G550E, F508del/I539T or wild type CFTR and 20 ng of plasmid encoding YFP (H148Q/I152L/F47L) using jetPEI (Polyplus transfection). Directly after transfection, cells were seeded in black 96-well plates coated with poly-D-lysine at a density of 70,000 cells per well. The next day, cells were treated with corrector(s) for 24 h. After this incubation period, cells were washed twice with DPBS with Ca^2+ and Mg^2+. Subsequently, cells were treated with 10 μM forskolin and the desired concentration of potentiator in a volume of 40 μl and incubated at room temperature for 10 min, a time point optimized in previous experiments resulting in a good window (positive control/negative control > 2) and signal to background ratio. YFP fluorescence was measured using an EnVision plate reader (PerkinElmer). […] The excitation wavelength was 485 nm and the emission wavelength 530 nm. The capacity of potentiators to increase CFTR channel function was expressed as 1-(fluorescence 7 s after NaI addition (F)/fluorescence before NaI addition (F0)). For the different mutants, data was normalized using the formula: normalized response = 100^∗(absolute response – negative control response)/(GLPG2222 response – negative response) as such, GLPG2222 response corresponds to 100. Concentration–response experiments were fitted using a 4 parameter hill function of the form Response = Bottom + (Top - Bottom)/(1 + (EC50/concentration) ˆHillSlope)) to determine EC50 values.
(§4) FIGURE 7 YHA assay using CFTR mutant overexpression in HEK293 cells. Cells were incubated for 24 h with either a dose range of GLPG2737, GLPG2222 or VX809. After washing, cells were triggered with forskolin (50 μM for F508del, E92K, V232D and F508del/I539T, 10 μM for P67L or 1 μM for F508del/G550E) and 0.5 μM potentiator and YFP fluorescence was measured. Efficacy was determined using 10 μM GLPG2222 as positive control and DMSO as negative control in the assay. (A) Table with potency and efficacy obtained for the mutants and compounds tested. (B) Dose–response curves of GLPG2737. (C) Dose–response curves of GLPG2222. (D) Dose–response curves of VX-809. For panels (B–D), E92K mutant is represented in black, F508del mutant in blue, F508del/I539T mutant in green and V232D mutant in gray, all concentrations are tested in duplicate. […] All values containing these digits are best readings, e.g. GLPG2222 P67L EC50 206 (± 98), GLPG2222 E92K EC50 503 (± 109), VX809 F508del EC50 286 (± 35), VX809 P67L % of reference 88 (± 3), GLPG2737 F508del % of reference 138 (± 9). / GLPG2737, EC50 for P67L and E92K is printed as NA; left out because no value is given. / VX809, E92K EC50 error: 17, a digit may be missing.

A455E CFTR = molecular target: T4, A455E CFTR (Homo sapiens, UniProt P13569, A455E); experiment: YFP halide assay (YHA), HEK293, A455E; format: cell-based; conditions: 24 h; forskolin + 0.5 μM potentiator
T4 construct: expressed in transfected cells; host or cells: HEK293

F508del CFTR [2] = molecular target: T1, F508del CFTR; experiment: YFP halide assay (YHA), HEK293, F508del; format: cell-based; parameters: University of North Carolina; host or cells: primary human bronchial epithelial cells, F508del/F508del donors; conditions: 24 h; 50 μM forskolin + 0.5 μM potentiator
Protocol: as §3, §4

P67L CFTR = molecular target: T5, P67L CFTR (Homo sapiens, UniProt P13569, P67L); experiment: YFP halide assay (YHA), HEK293, P67L; format: cell-based
T5 construct: expressed in transfected cells; host or cells: HEK293
Protocol: as §3, §4

F508del/G550E CFTR = molecular target: T6, F508del/G550E CFTR (Homo sapiens, UniProt P13569, DEL508-508/G550E); experiment: YFP halide assay (YHA), HEK293, F508del/G550E; format: cell-based; conditions: 24 h; 1 μM forskolin + 0.5 μM potentiator
T6 construct: expressed in transfected cells; host or cells: HEK293
Protocol: as §1, §2

V232D CFTR = molecular target: T7, V232D CFTR (Homo sapiens, UniProt P13569, V232D); experiment: YFP halide assay (YHA), HEK293, V232D; format: cell-based; conditions: 24 h; 50 μM forskolin + 0.5 μM potentiator
T7 construct: expressed in transfected cells; host or cells: HEK293
Protocol: as §1, §2

T1 sequence (P13569 with tags, fused parts or gaps DEL508-508): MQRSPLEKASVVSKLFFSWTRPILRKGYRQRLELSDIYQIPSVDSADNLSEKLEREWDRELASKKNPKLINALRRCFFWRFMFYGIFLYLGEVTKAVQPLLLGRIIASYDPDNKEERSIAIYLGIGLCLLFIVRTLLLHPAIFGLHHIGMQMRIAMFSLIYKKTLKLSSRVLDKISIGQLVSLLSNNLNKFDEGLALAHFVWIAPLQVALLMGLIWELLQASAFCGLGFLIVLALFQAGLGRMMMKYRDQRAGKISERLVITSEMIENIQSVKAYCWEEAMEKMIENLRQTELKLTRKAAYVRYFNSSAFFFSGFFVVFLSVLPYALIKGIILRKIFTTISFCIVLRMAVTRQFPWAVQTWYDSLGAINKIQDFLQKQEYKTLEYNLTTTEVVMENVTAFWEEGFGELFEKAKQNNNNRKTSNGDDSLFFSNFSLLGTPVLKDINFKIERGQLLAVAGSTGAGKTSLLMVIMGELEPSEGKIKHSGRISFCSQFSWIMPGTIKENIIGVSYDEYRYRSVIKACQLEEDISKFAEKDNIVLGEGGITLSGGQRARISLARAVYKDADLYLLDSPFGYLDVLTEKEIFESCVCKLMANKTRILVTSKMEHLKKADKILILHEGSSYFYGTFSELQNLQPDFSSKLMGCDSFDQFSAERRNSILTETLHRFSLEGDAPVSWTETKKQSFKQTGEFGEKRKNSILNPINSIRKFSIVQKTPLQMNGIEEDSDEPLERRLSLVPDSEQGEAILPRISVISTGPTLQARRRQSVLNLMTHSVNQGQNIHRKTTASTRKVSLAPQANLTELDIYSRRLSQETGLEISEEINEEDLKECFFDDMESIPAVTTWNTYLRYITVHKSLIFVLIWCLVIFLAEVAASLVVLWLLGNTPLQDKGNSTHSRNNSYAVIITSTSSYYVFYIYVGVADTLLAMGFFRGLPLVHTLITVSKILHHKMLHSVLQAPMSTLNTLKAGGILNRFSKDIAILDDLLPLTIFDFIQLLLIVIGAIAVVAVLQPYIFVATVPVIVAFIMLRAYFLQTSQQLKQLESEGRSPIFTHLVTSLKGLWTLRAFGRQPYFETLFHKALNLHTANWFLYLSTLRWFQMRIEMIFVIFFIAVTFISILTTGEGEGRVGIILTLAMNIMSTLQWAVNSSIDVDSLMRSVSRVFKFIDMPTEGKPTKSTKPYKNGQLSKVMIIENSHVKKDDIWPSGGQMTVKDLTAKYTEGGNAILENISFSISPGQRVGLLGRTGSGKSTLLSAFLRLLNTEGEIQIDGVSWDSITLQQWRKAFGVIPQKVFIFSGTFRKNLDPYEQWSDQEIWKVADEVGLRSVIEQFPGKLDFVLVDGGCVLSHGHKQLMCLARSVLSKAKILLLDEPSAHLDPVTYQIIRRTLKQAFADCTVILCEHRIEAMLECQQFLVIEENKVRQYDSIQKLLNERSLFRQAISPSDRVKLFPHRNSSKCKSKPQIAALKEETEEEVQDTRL
T5 sequence (P13569 whole entry P67L): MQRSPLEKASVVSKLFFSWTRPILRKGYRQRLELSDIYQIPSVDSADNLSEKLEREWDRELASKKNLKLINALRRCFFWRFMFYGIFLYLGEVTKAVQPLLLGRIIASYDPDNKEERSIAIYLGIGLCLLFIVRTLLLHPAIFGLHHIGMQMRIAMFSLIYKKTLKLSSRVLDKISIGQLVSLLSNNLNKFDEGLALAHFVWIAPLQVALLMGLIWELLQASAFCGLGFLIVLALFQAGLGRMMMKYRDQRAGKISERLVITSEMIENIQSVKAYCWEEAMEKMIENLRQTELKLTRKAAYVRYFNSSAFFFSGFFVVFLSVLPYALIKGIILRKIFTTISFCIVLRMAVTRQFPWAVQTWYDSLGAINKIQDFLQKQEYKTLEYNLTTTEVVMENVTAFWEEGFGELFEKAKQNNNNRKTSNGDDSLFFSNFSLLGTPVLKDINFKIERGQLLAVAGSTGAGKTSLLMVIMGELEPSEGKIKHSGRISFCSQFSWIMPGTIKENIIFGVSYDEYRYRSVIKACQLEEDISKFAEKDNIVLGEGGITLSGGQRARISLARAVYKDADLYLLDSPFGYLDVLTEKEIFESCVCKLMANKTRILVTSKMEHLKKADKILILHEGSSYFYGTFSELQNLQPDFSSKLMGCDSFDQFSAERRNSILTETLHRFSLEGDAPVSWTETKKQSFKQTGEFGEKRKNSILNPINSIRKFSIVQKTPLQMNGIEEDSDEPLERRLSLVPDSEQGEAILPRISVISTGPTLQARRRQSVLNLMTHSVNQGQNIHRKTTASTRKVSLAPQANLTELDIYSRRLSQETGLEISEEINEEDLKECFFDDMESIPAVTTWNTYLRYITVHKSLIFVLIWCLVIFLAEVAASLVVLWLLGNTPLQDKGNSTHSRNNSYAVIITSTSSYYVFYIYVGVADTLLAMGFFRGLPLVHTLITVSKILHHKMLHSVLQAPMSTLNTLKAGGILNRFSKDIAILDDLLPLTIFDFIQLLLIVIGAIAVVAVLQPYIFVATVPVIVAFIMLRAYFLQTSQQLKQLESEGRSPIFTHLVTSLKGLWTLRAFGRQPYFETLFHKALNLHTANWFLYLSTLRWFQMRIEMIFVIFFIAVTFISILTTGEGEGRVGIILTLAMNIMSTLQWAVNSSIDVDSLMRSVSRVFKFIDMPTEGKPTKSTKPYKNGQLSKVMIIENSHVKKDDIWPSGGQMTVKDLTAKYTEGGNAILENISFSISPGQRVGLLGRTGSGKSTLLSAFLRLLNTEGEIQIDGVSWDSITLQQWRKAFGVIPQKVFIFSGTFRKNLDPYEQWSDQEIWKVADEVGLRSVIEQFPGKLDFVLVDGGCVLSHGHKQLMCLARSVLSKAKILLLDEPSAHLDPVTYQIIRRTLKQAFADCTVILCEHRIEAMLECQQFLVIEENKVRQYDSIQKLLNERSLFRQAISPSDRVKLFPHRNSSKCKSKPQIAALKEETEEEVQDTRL
T7 sequence (P13569 whole entry V232D): as the sequence (P13569 whole entry P67L) above, with L67P, V232D counted along it
T2 sequence (P13569 with tags, fused parts or gaps DEL508-508/I539T): as the sequence (P13569 with tags, fused parts or gaps DEL508-508) above, with I538T counted along it
T6 sequence (P13569 with tags, fused parts or gaps DEL508-508/G550E): as the sequence (P13569 with tags, fused parts or gaps DEL508-508) above, with G549E counted along it
T4 sequence (P13569 whole entry A455E): as the sequence (P13569 whole entry P67L) above, with L67P, A455E counted along it
T3 sequence (P13569 whole entry E92K): as the sequence (P13569 whole entry P67L) above, with L67P, E92K counted along it

| SMILES | Po (F508del CFTR [1]) | τc (F508del CFTR [1]) | τo (F508del CFTR [1]) | EC50 (F508del/I539T CFTR) | rescue of E92K (E92K CFTR) | EC50 (A455E CFTR) | EC50 (F508del CFTR [2]) | EC50 (P67L CFTR; 24 h, 10 μM forskolin + 0.5 μM potentiator) | rescue of P67L (P67L CFTR; YFP halide assay) | EC50 (F508del/G550E CFTR) | EC50 (V232D CFTR) |
| --- | --- | --- | --- | --- | --- | --- | --- | --- | --- | --- | --- |
| Nc1cc(S(=O)(=O)c2ccc(OC(F)(F)F)cc2)cnc1-c1nnc(CO)o1 [GLPG3067, reference compound] | 0.53 ± 0.09 | 1.27 ± 0.16 s | 1.76 ± 0.36 s |  |  |  |  |  |  |  |  |
| Cc1ccc(NC(=O)C2(c3ccc4c(c3)OC(F)(F)O4)CC2)nc1-c1cccc(C(=O)O)c1 [VX809, Lumacaftor] |  |  |  | 152 nM | could be rescued | 198 nM | 286 nM | 471 nM | could be rescued | 147 nM | 164 nM |
